Earlier results as cited in patent publication US20210379001A1, “SUPPLEMENT INCLUDING GAMMA-AMINOBUTYRIC ACID FOR RESTORING GROWTH HORMONE LEVELS” (1198966 B.C. LTD., priority 2020, published 2021).

Tested on: GABA levels in rat striatal tissue and striatal extracellular fluid

NC(=O)CC[C@H](N)C(=O)O [L-Glutamine]
striatal GABA levels (2,5 h after oral 2.0 g/kg of glutamine, vehicle-treated rats 1.76+/−0.04): 2.00 ± 0.15 µmol/g
response evoked by NMDA, over baseline (ECF GABA, NMDA alone 70%, P<0.05): 120%
increase of ECF GABA concentrations (rat striatal extracellular fluid, P<0.05): 30%
